Tested on: 616215-338-R-J1-PDC spheroids with HUVEC/MSC, viability
Assay: Anticancer human tumor 616215-338-R-J1-PDC patient-derived colon adenocarcinoma cell line growth inhibition [PI3K]
Details: for IC50: curve of first compound; for viability, T/C: stronger effect = lower value
Procedure, shortened: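 Multi-cell spheroids combine tumor cells with HUVEC and human MSCs, treated with targeted agents alone or with inavolisib, alpelisib, duvelisib or copanlisib. Concentrations fall in half-log steps from at or near clinical Cmax, or from 10 microM where Cmax is unknown; viability read-out.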

[1] = second compound 0.0316 µM, first compound 0.0316 µM
[2] = second compound 0.0316 µM, first compound 0.1 µM
[3] = second compound 0.0316 µM, first compound 0.316 µM
[4] = second compound 0.0316 µM, first compound 1 µM
[5] = second compound 0.0316 µM, first compound 3.16 µM
[6] = second compound 0.0316 µM, first compound 10 µM
[7] = second compound 0.1 µM, first compound 0.0316 µM
[8] = second compound 0.1 µM, first compound 0.1 µM
[9] = second compound 0.1 µM, first compound 0.316 µM
[10] = second compound 0.1 µM, first compound 1 µM
[11] = second compound 0.1 µM, first compound 3.16 µM
[12] = second compound 0.1 µM, first compound 10 µM
[13] = second compound 0.316 µM, first compound 0.0316 µM
[14] = second compound 0.316 µM, first compound 0.1 µM
[15] = second compound 0.316 µM, first compound 0.316 µM
[16] = second compound 0.316 µM, first compound 1 µM
[17] = second compound 0.316 µM, first compound 3.16 µM
[18] = second compound 0.316 µM, first compound 10 µM
[19] = second compound 1 µM, first compound 0.0316 µM
[20] = second compound 1 µM, first compound 0.1 µM
[21] = second compound 1 µM, first compound 0.316 µM
[22] = second compound 1 µM, first compound 1 µM
[23] = second compound 1 µM, first compound 3.16 µM
[24] = second compound 1 µM, first compound 10 µM
[25] = second compound 3.16 µM, first compound 0.0316 µM
[26] = second compound 3.16 µM, first compound 0.1 µM
[27] = second compound 3.16 µM, first compound 0.316 µM
[28] = second compound 3.16 µM, first compound 1 µM
[29] = second compound 3.16 µM, first compound 3.16 µM
[30] = second compound 3.16 µM, first compound 10 µM
[31] = second compound 10 µM, first compound 0.0316 µM
[32] = second compound 10 µM, first compound 0.1 µM
[33] = second compound 10 µM, first compound 0.316 µM
[34] = second compound 10 µM, first compound 1 µM
[35] = second compound 10 µM, first compound 3.16 µM
[36] = second compound 10 µM, first compound 10 µM
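Also: spheroids exposed to agents for seven days before the viability read.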

CC(C)NCC(C(=O)N1CCN(c2ncnc3c2C(C)CC3O)CC1)c1ccc(Cl)cc1 (stereo unspecified) + CC(Nc1ncnc2nc[nH]c12)c1cc2cccc(Cl)c2c(=O)n1-c1ccccc1
IC50 (second compound 0.0316 µM): 4.16 µM | IC50 (second compound 0.1 µM): 3.77 µM | IC50 (second compound 0.316 µM): 4.74 µM | IC50 (second compound 1 µM): 5.08 µM | IC50 (second compound 3.16 µM): 4.13 µM | IC50 (second compound 10 µM): 3.54 µM | viability, T/C [1]: 91.7% | viability, T/C [2]: 93.4% | viability, T/C [3]: 94.4% | viability, T/C [4]: 87.2% | viability, T/C [5]: 57.9% | viability, T/C [6]: 24.9% | viability, T/C [7]: 103% | viability, T/C [8]: 86.7% | viability, T/C [9]: 91% | viability, T/C [10]: 94.2% | viability, T/C [11]: 54.8% | viability, T/C [12]: 23.5% | viability, T/C [13]: 90.5% | viability, T/C [14]: 95% | viability, T/C [15]: 83.7% | viability, T/C [16]: 94% | viability, T/C [17]: 65.2% | viability, T/C [18]: 21.9% | viability, T/C [19]: 90.3% | viability, T/C [20]: 90.8% | viability, T/C [21]: 101% | viability, T/C [22]: 109% | viability, T/C [23]: 67.2% | viability, T/C [24]: 25.4% | viability, T/C [25]: 89.2% | viability, T/C [26]: 101% | viability, T/C [27]: 99.8% | viability, T/C [28]: 79.9% | viability, T/C [29]: 58.4% | viability, T/C [30]: 26.2% | viability, T/C [31]: 105% | viability, T/C [32]: 104% | viability, T/C [33]: 100% | viability, T/C [34]: 91.7% | viability, T/C [35]: 52.2% | viability, T/C [36]: 27.8%

CCN1CCN(Cc2ccc(Nc3ncc(F)c(-c4cc(F)c5nc(C)n(C(C)C)c5c4)n3)nc2)CC1 + CC(Nc1ncnc2nc[nH]c12)c1cc2cccc(Cl)c2c(=O)n1-c1ccccc1
IC50 (second compound 0.0316 µM): > 1 µM | IC50 (second compound 0.1 µM): > 1 µM | IC50 (second compound 0.316 µM): > 1 µM | IC50 (second compound 1 µM): > 1 µM | IC50 (second compound 3.16 µM): > 1 µM | IC50 (second compound 10 µM): > 1 µM | viability, T/C (second compound 0.0316 µM, first compound 0.00316 µM): 92% | viability, T/C (second compound 0.0316 µM, first compound 0.01 µM): 90.9% | viability, T/C [1]: 100% | viability, T/C [2]: 98.6% | viability, T/C [3]: 150% | viability, T/C [4]: 109% | viability, T/C (second compound 0.1 µM, first compound 0.00316 µM): 91.5% | viability, T/C (second compound 0.1 µM, first compound 0.01 µM): 88.2% | viability, T/C [7]: 104% | viability, T/C [8]: 106% | viability, T/C [9]: 137% | viability, T/C [10]: 149% | viability, T/C (second compound 0.316 µM, first compound 0.00316 µM): 95.2% | viability, T/C (second compound 0.316 µM, first compound 0.01 µM): 93.9% | viability, T/C [13]: 98.2% | viability, T/C [14]: 100% | viability, T/C [15]: 147% | viability, T/C [16]: 106% | viability, T/C (second compound 1 µM, first compound 0.00316 µM): 98.5% | viability, T/C (second compound 1 µM, first compound 0.01 µM): 90.5% | viability, T/C [19]: 105% | viability, T/C [20]: 108% | viability, T/C [21]: 148% | viability, T/C [22]: 79.7% | viability, T/C (second compound 3.16 µM, first compound 0.00316 µM): 106% | viability, T/C (second compound 3.16 µM, first compound 0.01 µM): 93.9% | viability, T/C [25]: 123% | viability, T/C [26]: 124% | viability, T/C [27]: 144% | viability, T/C [28]: 86.8% | viability, T/C (second compound 10 µM, first compound 0.00316 µM): 111% | viability, T/C (second compound 10 µM, first compound 0.01 µM): 107% | viability, T/C [31]: 118% | viability, T/C [32]: 120% | viability, T/C [33]: 114% | viability, T/C [34]: 57.9%

Cn1ncc(Cl)c1-c1cc(C(=O)NC(CN)Cc2cccc(F)c2)sc1Cl (stereo unspecified) + CC(Nc1ncnc2nc[nH]c12)c1cc2cccc(Cl)c2c(=O)n1-c1ccccc1
IC50 (second compound 0.0316 µM): 5.37 µM | IC50 (second compound 0.1 µM): 4.2 µM | IC50 (second compound 0.316 µM): 4.15 µM | IC50 (second compound 1 µM): 4.48 µM | IC50 (second compound 3.16 µM): 3.16 µM | IC50 (second compound 10 µM): 3.29 µM | viability, T/C [1]: 106% | viability, T/C [2]: 87.6% | viability, T/C [3]: 98% | viability, T/C [4]: 93.7% | viability, T/C [5]: 75.7% | viability, T/C [6]: 19.8% | viability, T/C [7]: 107% | viability, T/C [8]: 103% | viability, T/C [9]: 100% | viability, T/C [10]: 92% | viability, T/C [11]: 60.7% | viability, T/C [12]: 16.4% | viability, T/C [13]: 98.4% | viability, T/C [14]: 100% | viability, T/C [15]: 104% | viability, T/C [16]: 95% | viability, T/C [17]: 59.5% | viability, T/C [18]: 19.6% | viability, T/C [19]: 95.9% | viability, T/C [20]: 88.5% | viability, T/C [21]: 105% | viability, T/C [22]: 94.5% | viability, T/C [23]: 64% | viability, T/C [24]: 17.6% | viability, T/C [25]: 104% | viability, T/C [26]: 113% | viability, T/C [27]: 96.1% | viability, T/C [28]: 82.1% | viability, T/C [29]: 50% | viability, T/C [30]: 19.6% | viability, T/C [31]: 98.3% | viability, T/C [32]: 112% | viability, T/C [33]: 106% | viability, T/C [34]: 75.1% | viability, T/C [35]: 54.7% | viability, T/C [36]: 20.6%
